The results in this text go back to patent US5208344A, “Naphthalenepropionic acid derivatives as anti-inflammatory/antiallergic agents” (American Home Products Corporation, priority 1991, dated 1993).

Each structure is given as a SMILES string.

The target of one test is T1, 5-lipoxygenase (Homo sapiens, UniProt P09917).
T1 construct: Blood is obtained in 50-100 ml quantities from male donors; endogenous in cells; host or cells: human whole blood (leukocytes) from male donors
T1 sequence (P09917 1-674): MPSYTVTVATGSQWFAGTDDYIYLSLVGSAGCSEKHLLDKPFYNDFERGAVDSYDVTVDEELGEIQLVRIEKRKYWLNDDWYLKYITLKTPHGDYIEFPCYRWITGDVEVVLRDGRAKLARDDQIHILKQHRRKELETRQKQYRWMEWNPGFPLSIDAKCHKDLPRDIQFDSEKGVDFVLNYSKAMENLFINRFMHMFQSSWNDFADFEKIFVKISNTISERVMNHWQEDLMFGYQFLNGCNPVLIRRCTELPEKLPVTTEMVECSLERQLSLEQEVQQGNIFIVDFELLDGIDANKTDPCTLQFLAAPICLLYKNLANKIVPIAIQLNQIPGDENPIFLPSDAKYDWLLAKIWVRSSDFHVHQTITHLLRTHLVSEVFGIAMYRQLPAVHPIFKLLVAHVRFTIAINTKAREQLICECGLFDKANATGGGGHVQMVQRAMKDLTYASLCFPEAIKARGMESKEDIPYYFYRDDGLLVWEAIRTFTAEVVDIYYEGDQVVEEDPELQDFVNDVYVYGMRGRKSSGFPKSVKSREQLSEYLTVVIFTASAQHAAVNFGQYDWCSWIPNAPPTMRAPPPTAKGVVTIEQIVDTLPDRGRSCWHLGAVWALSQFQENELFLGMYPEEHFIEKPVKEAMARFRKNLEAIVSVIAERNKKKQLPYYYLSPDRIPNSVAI
Description: inhibition of 5-lipoxygenase in human whole blood (LTB4). It is filed as cell-based. The following applies: human whole blood. On the procedure:
The assay of this Example measures the ability of the compounds tested to inhibit 5-lipxygenase in human whole blood.
Blood is obtained in 50-100 ml quantities from male donors. White blood cell counts and differentials are made. Two ml of blood are placed in a 15 ml polypropylene test tube. Compounds are solubilized in dimethylsulfoxide and diluted 1:10 in 10% bovine serum albumin in phosphate buffered saline, pH 7.4 resulting in a final dimethylsulfoxide concentration of 0.1% in the blood. Then, compounds are added to the blood in a shaking water bath at 37° C. for 10 minutes prior to the addition of 30 μM calcium ionophore (A23187; Sigma). After ionophore administration, whole blood samples are mixed and incubated for 20 minutes at 37° C. in a shaking water bath. Incubation is terminated by placing samples in an ice bath and immediately adding ethylene glycol-bis-(β-aminoethyl ether)-N,N,N',N'-tetraacetic acid (10 mM). Samples are mixed and centrifuged at 1200×g for 15 minutes at 4° C. Preparation of samples for evaluation by RIA or ELISA is carried out by the following protocol. Plasma is removed from sample tubes, placed in 15 ml polypropylene test tubes containing 8 ml methanol, and then vortexed to precipitate protein. Samples are stored at -70° C. overnight. The next day, samples are centrifuged at 200×g for 15 minutes at 4° C. to pellet the precipitate. Samples are dried in a Savant speed vac concentrator, reconstituted to original volume with ice cold RIA or ELISA buffer, and stored at -70° C. until assayed. The assay for eicosanoids (LTB4, TxB2, and PGE2) is performed as described by the manufacturer of the [^3 H]-RIA kit or ELISA kit (LTB4 -Amersham, TxB2 and PGE2 - Caymen Chemical).
The total eicosanoid level in 2 ml of blood is calculated and reported as ng/10^6 neutrophils. Significance is determined by a one-way analysis of variance with least significant difference (LSD) comparisons to control (p≤0.05) and IC50 's (μM) are determined by regression analysis (Finney, 1978). Drug effects are expressed as percent change form control values.
Compounds tested in vitro are solubilized in dimethylsulfoxide and diluted 1:10 in 10% bovine serum albumin in phosphate buffer saline resulting in a final dimethylsulfoxide concentration of 0.1% in the blood.

The next test deals with T2, LTD4 (Cavia porcellus, UniProt Q2NNR5).
T2 construct: isolated guinea pig trachea; from tissue; host or cells: guinea pig tracheal rings
T2 sequence (Q2NNR5 1-340): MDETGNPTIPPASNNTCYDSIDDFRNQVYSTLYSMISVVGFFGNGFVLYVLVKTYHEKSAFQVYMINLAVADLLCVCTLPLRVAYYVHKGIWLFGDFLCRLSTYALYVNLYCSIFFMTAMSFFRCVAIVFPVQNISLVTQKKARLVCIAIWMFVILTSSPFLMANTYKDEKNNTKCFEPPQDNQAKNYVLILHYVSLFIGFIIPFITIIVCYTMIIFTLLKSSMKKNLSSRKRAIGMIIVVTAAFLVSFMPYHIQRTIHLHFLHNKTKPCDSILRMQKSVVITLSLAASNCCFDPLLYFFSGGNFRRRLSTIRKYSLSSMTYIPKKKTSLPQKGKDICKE
As to the kind of experiment: LTD4 antagonist activity in isolated guinea pig trachea. It is filed as cell-based. To be noted: 1 × 10^-5 M. As for the experimental part: The LTD4 antagonist activity of the compounds of the invention is assessed in the in vitro isolated guinea pig trachea assay. Male Hartley guinea pigs (350-400 g) are euthanized by a blow to the head, the neck is opened and the trachea removed. The trachea is maintained in aerated physiological salt solution, cleared of connective tissue and fat and cut into rings approximately 2 mm in width (usually containing two cartilaginous segments per ring). Two pieces of silk suture are then passed through the lumen of the tracheal ring and are tied around the cartilage, one on each side of the trachealis muscle. The tracheal ring is suspended between a glass hook and a force displacement transducer in a 10 ml organ bath for measurement of isometric tension. Tissues are maintained at 37° C. in aerated ([…] /5% CO2) physiological salt solution of the following composition: […] The tracheal rings are maintained at 2 g resting tension and equilibrated for 45 minutes (with frequence washing and readjustment of resting tension). The tracheal rings are first contracted by the addition of carbachol (3×10^-6 M), to determine tissue responsiveness and establish a reference contraction. On attainment of a stable level of contraction (approximately 30 minutes), the tissues are washed several times until baseline tension has been restored and the re-equilibrated for 30 minutes. The tissues are then incubated for 45 minutes with a test antagonist (either 1×10^-6 M or 1×10^-5 M) or 10 μl of an appropriate solvent control (control, non-treated). One tissue in each group serves as the control. Twenty minutes prior to the construction of the LTD4 cumulative concentration-response curve, L-[…]×10^-2 M final bath concentration) is added to inhibit bioconversion of LTD4 to LTE4. Only one LTD4 concentration-response curve is constructed in each tissue. All responses to LTD4 in an individual tissue are measured as a percentage of the reference contraction of that tissue to carbachol. LTD4 antagonist activity is determined by comparison of the concentration response curves of LTD4 in the presence and absence of antagonist. Assessment of the relative rightward shift of the antagonist treated curve relative to the solvent (control) treated tissue is calculated as a concentration ratio (Eq. A) and used in subsequent calculations to derive an antagonist pKB value (Eqs. B and C). In the vent that the maximum response to LTD4 is depressed, the EC50 for that particular curve is determined, an "apparent" pKB reported, and the compound reported as "not-competitive." [formula] If a compound is found to be active and/or depress the maximal response to LTD4, then a range of concentrations of the test compound should be used generating multiple concentration ratios which would than be used to perform a Schild analysis, and determination of a pA2 value where appropriate.

The subject of another test is carrageenan paw edema. Description: rat carrageenan paw edema assay. It is filed as in vivo. To be noted: Rattus norvegicus, po, 3 h, read-out: Oral ED50 (95% C.L.). On the procedure: The compounds of the invention are further tested in the rat carrageenan paw edema assay to determine their ability to inhibit the acute inflammatory response.
140-180 gm male Sprague-Dawley rats, in groups of 6 animals are injected subcutaneously in the right paw with 0.1 ml of 1% carrageenan at zero time. Mercury plethysmographic readings (ml) of the paw are made at zero time and 3 hours later. Test compounds are suspended or dissolved in 0.5% methylcellulose and given perorally 1 hour prior to carrageenan administration.
The increase in paw volume (edema in ml.) produced by the carrageenan is measured. […] Unpaired Student's t-test is used to determine statistical significance.
(In general: In the carrageenan paw model, swelling and tenderness develop within hours.)

With `C[C@H](C(=O)N(C)O)c1ccc2cc(OCc3nc4ccccc4o3)ccc2c1` [Example 47, S-N-Hydroxy-α, N-dimethyl-6-(2-benzoxazolylmethoxy)-2-naphthaleneacetamide], on 5-lipoxygenase, at 25 µM the inhibition was 84% and it took 2300 nM to reach half-maximal inhibition (IC50). On LTD4, the Kb (usually the affinity of an antagonist, worked out from how it opposes an agonist) was 501 nM.
Taken in the same sequence, the figures for `C[C@H](C(=O)N(C)O)c1ccc2cc(OCc3nc4ccccc4s3)ccc2c1` [Example 41, S-(+)-N-Hydroxy-α,N-dimethyl-6-(2-benzothiazolylmethoxy)-2-naphthaleneacetamideone tenth hydrate] were 83%, 11400 nM and 398 nM.
In the same order, the values of `CC(NC(=O)NO)c1ccc2cc(OCc3csc(-c4ccccc4)n3)ccc2c1` (single isomer, unassigned; (-)) [Example 36, (-)-N-Hydroxy-N'-[1-[6-(2-phenyl-4-thiazolyl)methoxy-2-naphthalenyl]ethyl]urea] are 86%, 13500 nM and above 10000 nM.
Take `C[C@H](NC(=O)NO)c1ccc2cc(OCc3nc4ccccc4s3)ccc2c1` [Example 38, S-(-)-N-[1-[6-(2-Benzothiazolylmethoxy)-2-naphthalenyl]ethyl]-N'-hydroxyurea]: on 5-lipoxygenase, the inhibition – broadly, the change of the read-out against control, counted positive when it falls – at 25 µM came out at 52% and the IC50 (usually the concentration needed to halve the response being measured) stood at 34400 nM. At LTD4, this compound gave a Kb above 6310 nM.
In the same order, the values of `C[C@H](C(=O)N(C)O)c1ccc2cc(OCc3csc(-c4ccccc4)n3)ccc2c1` [Example 39, S(+)-N-Hydroxy-α,N-dimethyl-[6-(2-phenyl-4-thiazolyl)methoxy]-2-naphthaleneacetamide] are 91%, 6900 nM and 10000 nM.
Taken in the same sequence, the figures for `C[C@H](C(=O)N(C)O)c1ccc2cc(OCc3ccccn3)ccc2c1` [Example 44, S-(+)-N-Hydroxy-α, N-diomethyl-6-(2-pyridinylmethoxy)-2-naphthaleneacetamide] were 86%, 2000 nM and 1580 nM.
In the same order, the values of `C[C@H](C(=O)N(C)O)c1ccc2cc(OCc3nc4ccccc4n3C)ccc2c1` [Example 45, S-(+)-N-Hydroxy-α,N-dimethyl-6-[(1-methyl-1H-benzimidazol-2-yl)methoxy]-2-naphthaleneacetamide] are 75%, 1100 nM and 200 nM.
Turning to `CC(=O)Oc1ccccc1C(=O)O` [Aspirin, reference compound], the ED50 (as a rule, the dose at which the effect has come halfway, by size or by number of responders) in the test with carrageenan paw edema was 145 mg/kg.
